Measurements from patent publication US20020155172A1, “Methods and compounds for decreasing cell toxicity or death” (priority 2000, published 2002).
Structures can show the parent of a compound that is named as a salt. Where two headings read alike, the source gives them in different places. Peptide text beside a SMILES is read from it. * marks the point of attachment. Cbz = O=C(OCc1ccccc1)*

How the values were obtained:
[1] = system: HeLa cells co-transfected with a luciferase construct together with Q79-GFP; experiment: Protein synthesis by luciferase activity in Q79 expressing HeLa cells; type: cell-based
Q79-GFP aggregates = experiment: Decrease of pre-formed Q79-GFP aggregates in vitro; type: biochemical; conditions: 100 μM each; visually examined
Protocol: Q79-GFP was expressed and purified from bacteria using standard molecular biology techniques. These fusion proteins form aggregates in vitro which can be viewed under an inverted fluorescence microscope. The Q79-GFP aggregates were administered Congo red (1 nM to 100 μM) and the ability of Congo red to decrease the aggregate was visually assessed.
This assay was also carried out on Q79-GFP aggregates that were administered compounds known to disrupt other types of aggregates, for example, beta-amyloid fibril aggregates. The Q79-GFP aggregates were administered Iota-carrageenan, dextran, minocycline, rolitetracycline, or Chrysamine G Congo red (100 μM each), and visually examined for the effect of each compound on disruption of the aggregate, as well as the density and size of the aggregates.

[2] = system: HeLa cells transfected with a Q79-GFP construct; experiment: Polyglutamine-induced cell death in HeLa cells; type: cell-based; conditions: Q79-GFP, compound added six hours after transfection, 1 nM to 100 μM (FIG. 4A: 100 μM), seventy-two hours post-transfection
Protocol: FIG. 4A is two graphs showing the effect of Congo red, tetracyclines, and sulfated polyanions on polyglutamine-induced cell death in, each graph representing a separate experiment. HeLa cells transfected with a Q79-GFP construct were treated with 100 μM of minocycline (mino), Chrysamine G (CG), Rolitetracycline (Ro), iota carrageenan (iota), dextran 500 (dextran), or Congo red (CR), six hours after transfection. The amount of cell death was determined 48 hours after transfection by morphological criteria as previously described (Sanchez et al., supra).
In a cell expressing Q79-GFP polypeptides, polyglutamine aggregates are formed and the cell dies by apoptosis (Sanchez, supra). Cell viability was determined by morphological criteria characteristic of apoptosis, including cell blebbing, shrinking. Total cell lysates and tissue homogenates were obtained using Buffer A: 1% triton in PBS, containing 10 μg/ml DNAse and protease inhibitors; leupeptin 20 μg/ml, aprotinin 20 u/ml, and PMSF 100 mM. The proteins were separated by 12% SDS/PAGE and transferred to PVDF Immobilon membrane (Millipore, Inc). Antibodies used included rabbit polyclonal antibodies; EM48 (Li et al., Mol. Neurobiol. 20:111-124, 2000) anti-heat shock proteins 40 and 70 (Stressgen, Co.), and rat monoclonal anti-caspase-8 antibody.
These effects were determined by visual inspection of GFP-positive cells under an inverted fluorescence microscope. In addition, the occurrence of apoptosis of these transfected cell samples was confirmed by staining the cells with trypan blue, propidium iodide, or Hoescht 33342 to examine the cellular or nuclear morphology.
Compounds that disrupt other types of aggregates, for example, amyloid fibril aggregates were tested for their ability to disrupt pre-formed polyglutamine aggregates. HeLa Cells were transfected with a Q79-GFP construct. Six hours later, Iota-carrageenan, dextran, minocycline, rolitetracycline, and Chrysamine G (1 nM to 100 μM) were each incubated with the cells. Seventy-two hours post-transfection, the cells were evaluated for the occurrence of cell death, by visual inspection under an inverted fluorescence microscope.

GST-Q81 beads = experiment: Chemical absorption assay, Q81; type: binding; conditions: 25 μM of each (FIG. 6B)
Protocol: FIG. 6B is a graph of the percent of binding of various compounds to amyloid-like Q81 aggregates measured using a chemical absorption assay. The anti-amyloid compounds minocycline, Chrysamine G, Rolitetracycline, iota carrageenan, dextran 500 (dextran), or Congo red (25 μM of each) were pre-absorbed with Q81 GST recombinant protein and the percentage absorbance of the compound remaining in the supernatant after absorption with GST-Q81 beads is plotted on the y-axis.
To determine if Congo red and its derivatives directly bind to expanded polyglutamine aggregates, we designed a chemical absorption assay. This assay measures the remaining Congo red in the supernatant after incubating the supernatant with GST-tagged polyglutamine beads, and removing the GST-polyglutamine beads by centrifugation. This assay was carried out as follows. Recombinant protein GST-Q19, GST-Q62, and GST-Q81 (containing 19, 62, and 81 polyglutamines, respectively) was purified from E. coli by glutathione beads. After several washes with PBS containing protease inhibitors, the beads were allowed to settle to the bottom of the tube at 24° C. for 10 minutes. The polyglutamine-bound beads were aliquoted and diluted with two volumes of 10 μg/ml of Congo red in PBS. The beads were mixed and centrifuged at 15,000 rpm for 2 minutes and the supernatant was removed and diluted 1:100. The percentage absorbance of the compound remaining in the supernatant after absorption with the GST-polyQ beads was then detected. In addition, Congo red- or PBS-only treated polyglutamine polypeptide bead pellets were washed three times with 100 volumes of PBS and then the protein was separated by 12% polyacrylamide gels and immunoblotted as mentioned above. Some blots were used for immunostaining with anti-polyglutamine antibody (EM48). Other blots were left unstained to visualize the red color of Congo red that entered the gel along with the polyglutamine protein.
Binding of the above-identified compounds to amyloid-like Q81 aggregates was also assessed by a chemical absorption assay. The compounds indicated in FIG. 19 (25 μM of each) were pre-absorbed with a Q81 GST recombinant protein and the percentage absorbance of the compound remaining in the supernatant after absorption with GST-Q81 beads was then detected.

[3] = system: non-transfected HeLa cells; experiment: Total cellular protein degradation; type: cell-based; conditions: Congo red 100 μM, ZVAD 100 μM, MG132 10 μM; H3-tyrosine release, 0 to 180 minutes
Protocol: FIG. 8C is a graph of the effect of effect of Congo red, ZVAD, or the proteosome inhibitor MG132 on total cellular protein degradation in non-transfected HeLa cells.
To rule out the possibility that Congo red may have an effect on protein degradation in general, we tested the effect of Congo red on proteosome degradation. Rates of total cellular protein degradation experiments, from cells seeded in 12 well dishes at 2×10^4, treated with Congo red (100 μM), ZVAD (100 μM), or the proteosome inhibitor MG132 (10 μM) and labeled with 5 μCi/ml of H^3-tyrosine for 1 hour. One hundred microliter culture medium aliquots were collected at 0, 30, 60, 90, 120, and 180 minute time points, and the levels of H^3-tyrosine were determined using an LS6000 scintillation counter (Beckman, Co).

cells; primary neurons = experiment: Compound toxicity in cells; type: cell-based
[4] = Q79 expressing HeLa cells, various concentrations

[O]=[Mg] [magnesium oxide]
protection against inhibition of protein synthesis (luciferase activity) ([1]; […], various concentrations): found to protect against inhibition of protein synthesis

dextran
dissolution or disruption of pre-formed expanded polyglutamine repeat aggregates (Q79-GFP aggregates): detected only after Congo red addition and daunomycin addition | Polyglutamine-induced Cell Death [2]: +++ (Each + indicates approximately 20% cell death.) | binding to 81-repeat polyglutamine polypeptide (GST-Q81 beads): binds to expanded polyglutamines

CCC1(c2ccccc2)C(=O)NCNC1=O [primidone]
protection against inhibition of protein synthesis (luciferase activity) [1, 4]: found to protect against inhibition of protein synthesis

CN(C)c1ccc(O)c2c1C[C@H]1C[C@H]3[C@H](N(C)C)C(O)=C(C(N)=O)C(=O)[C@@]3(O)C(O)=C1C2=O [minocycline]
Polyglutamine-induced Cell Death [2]: +++ (Each + indicates approximately 20% cell death.)

Nc1ccc(/N=N/c2ccccc2)c(N)n1 [phenazopyridine]
protection against inhibition of protein synthesis (luciferase activity) [1, 4]: found to protect against inhibition of protein synthesis

CC(C)C[C@@H](C=O)NC(=O)[C@H](CC(C)C)NC(=O)[C@H](CC(C)C)NC(=O)OCc1ccccc1 [MG132] (Cbz-Leu-Leu-Leu-aldehyde)
general protein degradation [3]: inhibited

CN(C)[C@@H]1C(O)=C(C(=O)NCN2CCCC2)C(=O)[C@@]2(O)C(O)=C3C(=O)c4c(O)cccc4[C@@](C)(O)[C@H]3C[C@@H]12 [rolitetracycline]
Polyglutamine-induced Cell Death [2]: +++ (Each + indicates approximately 20% cell death.)

R-(−)-deprenyl hydrochloride
protection against inhibition of protein synthesis (luciferase activity) ([1]; […], various concentrations): found to protect against inhibition of protein synthesis

O=C(O)c1cc(/N=N/c2ccc(-c3ccc(/N=N/c4ccc(O)c(C(=O)O)c4)cc3)cc2)ccc1O [Chrysamine G]
dissolution or disruption of pre-formed expanded polyglutamine repeat aggregates (Q79-GFP aggregates): detected only after Congo red addition and daunomycin addition | Polyglutamine-induced Cell Death [2]: +++ (Each + indicates approximately 20% cell death.) | binding to 81-repeat polyglutamine polypeptide (GST-Q81 beads): binds to expanded polyglutamines

C[C@H]1O[C@@H](O[C@H]2[C@@H](O)C[C@H](O[C@H]3[C@@H](O)C[C@H](O[C@H]4CC[C@@]5(C)[C@H](CC[C@@H]6[C@@H]5C[C@@H](O)[C@]5(C)[C@@H](C7=CC(=O)OC7)CC[C@]65O)C4)O[C@@H]3C)O[C@@H]2C)C[C@H](O)[C@@H]1O [digoxin]
protection against inhibition of protein synthesis (luciferase activity) ([1]; […], various concentrations): found to protect against inhibition of protein synthesis

COc1cccc2c1C(=O)c1c(O)c3c(c(O)c1C2=O)C[C@@](O)(C(C)=O)C[C@@H]3O[C@H]1C[C@H](N)[C@H](O)[C@H](C)O1 [daunomycin, reference compound]
dissolution or disruption of pre-formed expanded polyglutamine repeat aggregates (Q79-GFP aggregates): dissolution or disruption of pre-formed expanded polyglutamine repeat aggregates were detected | compound toxicity in cells (cells; primary neurons): highly toxic to cells

CC(C)C[C@H]1C(=O)N2CCC[C@H]2[C@]2(O)O[C@](NC(=O)[C@@H]3C=C4c5cccc6[nH]c(Br)c(c56)C[C@H]4N(C)C3)(C(C)C)C(=O)N12 [bromocriptine mesylate]
protection against inhibition of protein synthesis (luciferase activity) ([1]; […], various concentrations): found to protect against inhibition of protein synthesis

Cn1cnc([N+](=O)[O-])c1Sc1ncnc2nc[nH]c12 [azathioprine]
protection against inhibition of protein synthesis (luciferase activity) [1, 4]: found to protect against inhibition of protein synthesis

iota-carrageenan
dissolution or disruption of pre-formed expanded polyglutamine repeat aggregates (Q79-GFP aggregates): detected only after Congo red addition and daunomycin addition | Polyglutamine-induced Cell Death [2]: +++ (Each + indicates approximately 20% cell death.) | binding to 81-repeat polyglutamine polypeptide (GST-Q81 beads): binds to expanded polyglutamines

N[C@@H]1CONC1=O [D-cycloserine]
protection against inhibition of protein synthesis (luciferase activity) [1, 4]: found to protect against inhibition of protein synthesis

O=C(CCCN1CCC(O)(c2ccc(Cl)cc2)CC1)c1ccc(F)cc1 [haloperidol]
protection against inhibition of protein synthesis (luciferase activity) [1, 4]: found to protect against inhibition of protein synthesis

C[C@]12CCC(=O)C=C1CC[C@@H]1[C@@H]2[C@@H](O)C[C@@]2(C)[C@H]1CC[C@]2(O)C(=O)CO [hydrocortisone]
protection against inhibition of protein synthesis (luciferase activity) [1, 4]: found to protect against inhibition of protein synthesis

neostigmine methyl ether
protection against inhibition of protein synthesis (luciferase activity) ([1]; […], various concentrations): found to protect against inhibition of protein synthesis

COc1ccc2cc(CCC(C)=O)ccc2c1 [nabumetone]
protection against inhibition of protein synthesis (luciferase activity) [1, 4]: found to protect against inhibition of protein synthesis

C[C@H]1C[C@@H]2[C@H]([C@@H](O)C[C@@]3(C)[C@H]2CC[C@]3(O)C(=O)COC(=O)CCC(=O)O)[C@@]2(C)C=CC(=O)C=C12 [6a-methylprednisolone 21-hemisuccinate]
protection against inhibition of protein synthesis (luciferase activity) [1, 4]: found to protect against inhibition of protein synthesis

CCCCCCCCC(=O)NCc1ccc(O)c(OC)c1 [N-vanillylnonanmide]
protection against inhibition of protein synthesis (luciferase activity) [1]: found to protect against inhibition of protein synthesis
